IC50 and melting point data for 46 compounds are collected here from patent US7666885B2, “Enzyme inhibitors” (Consejo Superior de Investigaciones Cientificas, priority 2000, dated 2010).

A value given as a limit tells only on which side of the number the result lay.

T1 sequence (P49841 whole entry, species assumed): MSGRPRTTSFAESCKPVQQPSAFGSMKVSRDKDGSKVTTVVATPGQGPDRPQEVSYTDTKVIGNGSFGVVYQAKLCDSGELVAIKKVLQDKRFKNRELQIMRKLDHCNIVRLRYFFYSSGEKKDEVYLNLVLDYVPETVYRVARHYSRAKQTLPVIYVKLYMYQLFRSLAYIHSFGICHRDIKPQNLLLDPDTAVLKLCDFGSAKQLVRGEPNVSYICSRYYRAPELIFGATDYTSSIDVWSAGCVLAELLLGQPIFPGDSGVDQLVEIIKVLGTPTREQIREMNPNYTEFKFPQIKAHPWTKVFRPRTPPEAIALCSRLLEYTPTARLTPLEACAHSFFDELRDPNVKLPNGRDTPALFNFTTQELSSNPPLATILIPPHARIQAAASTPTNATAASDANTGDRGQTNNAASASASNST

One data set concerns N2A cells. The experiment in a line: Cell cycle blockade. As to conditions: Mus musculus; N2A cell cultures, Table 5. The data set is classed as cell-based, mice. As for the experimental part: In parallel, the potential interference of these compounds with the cell cycle was studied on N2A cells. The cell culture was maintained in a Dulbecco medium (DEMEM) with a 10% fethal bovine serum, glutamine (2 mM) and antibiotics.
The first four compounds of general formula (I) gathered in Table 3 were assayed in the described conditions and shown ability to inhibit the cell cycle at an inhibitor concentration comprised between 100 nM and 1 μM. The cellular blockade was initially observed at concentrations comprised between 100-200 nM and was totally effective at 1 μM.
The IC50 is the concentration that inhibits the measured activity by half. With `Cn1sc(=O)n(-c2ccccc2)c1=O` [Compound 5, 4-Phenyl-2-methyl-1,2,4-thiadiazolidin-3,5-dione], the IC50 lay in the range of 4 to 7 µM.
Still for that read-out and setting: next, `COc1ccc(-n2c(=O)sn(C)c2=O)cc1` [Compound 7, 4-(4-Methoxyphenyl)-2-methyl-1,2,4-thiadiazolidine-3,5-dione]: 1 to 2 µM.
With `CCOC(=O)Cn1c(=O)sn(C)c1=O` [Compound 6, 4-(Ethoxycarbonylmethyl)-2-methyl-1,2,4-thiadiazolidine-3,5-dione], the IC50 lay in the range of 1 to 2 µM.
On the same count and under the same terms, with `CCn1c(=O)sn(C2CCCCC2)c1=O` [Compound 4, 2-Cyclohexyl-4-ethyl-1,2,4-thiadiazolidine-3,5-dione] the figure was 6 to 9 µM.
In turn, `Cn1sc(=O)n(Cc2ccccc2)c1=O` [Compound 1, 4-Benzyl-2-methyl-1,2,4-thiadiazolidine-3,5-dione] returned an IC50 of 4 to 8 µM.
Still for that read-out and setting: with `CCn1c(=O)sn(C)c1=O` [Compound 2, 4-Ethyl-2-methyl-1,2,4-thiadiazolidine-3,5-dione] the figure was 40 to 100 µM; with `CCn1sc(=O)n(Cc2ccccc2)c1=O` [Compound 8, 4-Benzyl-2-ethyl-1,2,4-thiadiazolidine-3,5-dione], 4 to 7 µM; with `CCCn1sc(=O)n(CC)c1=O` [Compound 3, 4-Ethyl-2-n-propyl-1,2,4-thiadiazolidine-3,5-dione], 5 to 10 µM.

The data set is the same for the next values; noted with them: N2A cell cultures, Table 5.
Turning to `O=c1sn(Cc2ccccc2)c(=S)n1Cc1ccccc1` [Compound 11, 2,4-Dibenzyl-5-oxo-thiadiazolidine-3-thione], the IC50 fell in the range of 1 to 2 µM.
The same measure, in the same setting: with `O=c1sn(-c2ccccc2)c(=S)n1-c1ccccc1` [Compound 12, 2,4-diphenyl-5-oxo-thiadiazolidine-3-thione] the figure was 4 to 8 µM.

The next data set concerns the target T1, GSK-3β (Homo sapiens, UniProt P49841).
T1 construct: purchased Sigma
The experiment in a line: GSK-3β inhibition (radiometric, GS 1 peptide). In kind it is biochemical. As to conditions: GSK-3 enzyme (Sigma), 15 μM ATP, GS 1 peptide; Tables 3, 3a, 4; read-out: IC50. On the procedure: GSK-3β inhibition: The GSK-3 activity was determined by incubation of a mixture of GSK-3 enzyme (Sigma), a phosphate source and a GSK-3 substrate in the presence and in the absence of the corresponding test compound, and by measuring the GSK-3 activity of this mixture.
The reaction is quenched by addition of an aliquot of the reaction mixture in phosphocelullose p81 papers. These papers are washed three times with phosphoric acid 1% and the radioactivity incorporated to the GS 1 peptide is measured in a liquid scintillation counter.
Turning to `CCn1sc(=NO)n(-c2ccccc2)c1=O` [Compound 50, 2-Ethyl-4-phenyl-1,2,4-thiadiazolidine-3-one-5-oxime], the IC50 worked out at 100 µM.
Same read-out and setting: next, `O=c1[nH]sc(=O)n1Cc1ccccc1` [Compound 42, 4-Benzyl-1,2,4-thiadiazolidine-3,5-dione]: 50 µM; `Cn1c(=O)n(-c2ccccc2)c(=O)n1C` [Compound 2-H]: above 100 µM; `Cc1ccc(-n2c(=O)sn(C)c2=O)cc1` [Compound 15, 4-(4-Methylphenyl)-2-methyl-1,2,4-thiadiazolidine-3,5-dione]: 5 µM.
On to `O=C1CCC(=O)N1Cc1ccccc1` [Compound 2-E], for which the IC50 was above 100 µM.
On the same count and under the same terms, with `O=c1sn(Cc2ccccc2)c(=S)n1Cc1ccccc1` [Compound 11, 2,4-Dibenzyl-5-oxo-thiadiazolidine-3-thione] the figure was 10 µM; with “4-Ethyl-5-[imino-(1-methyl-piperidin-3-yl)]-2-methyl-1,2,4-thiadiazolidin-3-One [Compound 25]”, above 100 µM; with `CCOC(=O)Cn1c(=O)sn(C)c1=O` [Compound 45, 4-(Ethoxycarbonylmethyl)-2-methyl-1,2,4-thiadiazolidine-3,5-dione], 2 µM.
The same measure, in the same setting: with `CCOC(=O)Cn1c(=O)sn(C(=O)c2ccccc2)c1=O` [Compound 47, 2-Benzoyl-4-(ethoxycarbonylmethyl)-1,2,4-thiadiazolidine-3,5-dione] the figure was 4 µM.
In the case of `Cn1sc(=O)n(-c2ccccc2)c1=O` [Compound 5, 4-Phenyl-2-methyl-1,2,4-thiadiazolidin-3,5-dione], the concentration for half-maximal inhibition (IC50) came out at 2 µM.
The same measure, in the same setting: next, `CCn1sc(=O)n(-c2ccc([N+](=O)[O-])cc2)c1=O` [Compound 49, 2-Ethyl-4-(4-nitrophenyl)-1,2,4-thiadiazolidine-3,5-dione]: 8.5 µM.
Still for that read-out and setting: with `O=C1NC(=O)c2ccccc21` [Compound 1-F] the figure was above 100 µM; with “3-[5-(4-Ethyl-2-methyl-3-oxo)imino-1,2,4-thiadiazolidyl]-1-methyl-pyridinium iodide [Compound 24]”, above 100 µM.
The same measure, in the same setting: next, `O=c1sn(-c2ccccc2)c(=S)n1-c1ccccc1` [Compound 12, 2,4-diphenyl-5-oxo-thiadiazolidine-3-thione]: 20 µM.
As to `Cn1sc(=O)n(-c2ccc(Br)cc2)c1=O` [Compound 16, 4-(4-Bromophenyl)-2-methyl-1,2,4-thiadiazolidine-3,5-dione], the IC50 came out at 3 µM.
Still for that read-out and setting: next, `CCn1c(=O)sn(C(C)C)c1=O` [Compound 9, 4-Ethyl-2-isopropyl-1,2,4-thiadiazolidin-3,5-dione]: 35 µM; `CCn1sc(=O)n(CCc2ccccc2)c1=O` [Compound 41, 2-Ethyl-4-phenethyl-1,2,4-thiadiazolidine-3,5-dione]: 8 µM; `CCOC(=O)Cn1c(=O)sn(C)c1=O` [Compound 6, 4-(Ethoxycarbonylmethyl)-2-methyl-1,2,4-thiadiazolidine-3,5-dione]: 5 µM.
As to `O=C(c1ccccc1)n1sc(=O)n(Cc2ccccc2)c1=O` [Compound 31, 2-Benzoyl-4-benzyl-1,2,4-thiadiazolidine-3,5-dione], the IC50 was 3 µM.
The same measure, in the same setting: next, `CCn1c(=O)sn(C2CCCCC2)c1=O` [Compound 4, 2-Cyclohexyl-4-ethyl-1,2,4-thiadiazolidine-3,5-dione]: 10 µM; `CCn1c(=O)sn(C)c1=O` [Compound 2, 4-Ethyl-2-methyl-1,2,4-thiadiazolidine-3,5-dione]: 5 µM; `O=C1CSC(=S)N1CCc1ccccc1` [Compound 5-G, 3-Phenethyl-2-thioxo-thiazolidin-4-One]: 35 µM.
Regarding `CCn1sc(=O)n(Cc2ccccc2)c1=O` [Compound 8, 4-Benzyl-2-ethyl-1,2,4-thiadiazolidine-3,5-dione], the IC50 worked out at 7 µM.
For `O=C1C=CC(=O)C1` [Compound 1-B], the IC50 was 12 µM.
On to `O=C(CN1C(=O)CSC1=S)c1ccccc1` [Compound 6-G, 3-Phenacyl-2-thioxo-thiazolidin-4-One], for which the concentration for half-maximal inhibition (IC50) amounted to 50 µM.
On the same count and under the same terms, with `Cn1sc(=O)n(-c2ccc(Cl)cc2)c1=O` [Compound 18, 4-(4-Chlorophenyl)-2-methyl-1,2,4-thiadiazolidine-3,5-dione] the figure was 4 µM.
Still for that read-out and setting: next, “3-(4-Ethyl-3-oxo-2-methyl-1,2,4-thiadiazolidin-5-ylidine)aminopyridine-1-oxide [Compound 23]”: above 100 µM; `CCCn1sc(=O)n(CC)c1=O` [Compound 3, 4-Ethyl-2-n-propyl-1,2,4-thiadiazolidine-3,5-dione]: 10 µM.
On to `O=C1CCC(=O)C1` [Compound 1-A], for which the 50% inhibitory concentration (IC50) was above 100 µM.
Same read-out and setting: next, `CCn1sc(=NO)n(Cc2ccccc2)c1=O` [Compound 36, 4-Benzyl-2-ethyl-1,2,4-thiadiazolidine-3-one-5-oxime]: 6 µM.
Still for that read-out and setting: next, `CCOC(=O)Cn1sc(=O)n(CC(=O)OCC)c1=O` [Compound 44, 4-(Ethoxycarbonylmethyl)-2-(ethoxycarbonylmethyl)-1,2,4-thiadiazolidine-3,5-dione]: 4 µM; `O=C1c2ccccc2C(=O)N1Cc1ccccc1` [Compound 2-F]: above 100 µM; `CCOC(=O)Cn1c(=O)sn(C(C)C)c1=O` [Compound 46, 4-(Ethoxycarbonylmethyl)-2-isopropyl-1,2,4-thiadiazolidine-3,5-dione]: 7 µM.
Same read-out and setting: with `O=C(O)CN1C(=O)CSC1=S` [Compound 3-G, (4-oxo-2-thioxo-thiazolidin-3-yl)-acetic acid] the figure was above 100 µM; with `CCOC(=O)Cn1sc(=O)n(Cc2ccccc2)c1=O` [Compound 33, 4-Benzyl-2-(Ethoxycarbonylmethyl)-1,2,4-thiadiazolidine-3,5-dione], 4 µM.
`CCn1sc(=O)n(Cc2ccccc2)c1=S` [Compound 10, 4-Benzyl-2-ethyl-5-oxo-1,2,4-thiadiazolidine-3-thione]: the IC50 came out at 6 µM.
Still for that read-out and setting: next, `Cn1sc(=O)n(-c2ccc(F)cc2)c1=O` [Compound 17, 4-(4-Fluorophenyl)-2-methyl-1,2,4-thiadiazolidine-3,5-dione]: 4 µM; `CCn1sc(=O)n(CC)c1=O` [Compound 13, 2,4-diethyl-5-oxo-1,2,4-thiadiazolidine-3,5-dione]: 20 µM.

The same data set, now with this note: Tables 4a, 4b; read-out: GSK-3β IC50.
As for `COc1ccc(CN2C(=O)C=CC2=O)cc1` [Compound 7-D, N-(p-methoxybenzyl)maleimide], the IC50 was 2.5 µM.
With `NN1C(=O)CSC1=S` [Compound 7-G], the IC50 is above 100 µM.
Same read-out and setting: next, `O=C1C=CC(=O)N1CCc1ccccc1` [Compound 4-D, N-phenethylmaleimide]: 2 µM.

Tested on in another data set: not given
Assay: not given
Details: not given
As a reminder, the melting point is the temperature of the solid-liquid transition. In turn, `COc1ccc(CCN2C(=O)C=CC2=O)cc1` [Compound 8-D, N-(p-Methoxyphenethyl)maleimide] had a melting point of 79 to 81 °C.
On the same count and under the same terms, with `O=C1C=CC(=O)N1CCCCCc1ccccc1` [Compound 6-D, N-(5-phenylpentyl)maleimide] the figure was 49 to 51 °C.
On the same count and under the same terms, next, `O=C1C=CC(=O)N1CCCc1ccccc1` [Compound 5-D, N-(3-phenylpropyl)maleimide]: 79 to 80 °C.
